Experimental findings from patent US20230095520A1, “PHARMACEUTICAL COMPOSITION FOR PREVENTING OR TREATING CANCER COMPRISING AZOLE DERIVATIVES OR PHARMACEUTICALLY ACCEPTABLE SALT THEREOF” (Yungjin Pharm. Co., Ltd., priority 2020, published 2023) are described below.

Structures are written as SMILES.

The target of assay [1] is T1, Recombinant purified human CDK7 (Homo sapiens, UniProt P50613).
T1 construct: purchased ThermoFisher PV3868
Briefly: CDK7 activity inhibition, ADP-Glo kinase assay. It counts as biochemical. Particulars: ATP 90 μM, MBP substrate, 2 hours 30° C. Here is the method: Recombinant purified human CDK7 (ThermoFisher, PV3868) and ADP Glo Kinase Assay Kit (Promega, V9102) were used. CDK7 was diluted with 1× kinase reaction buffer (40 mM Tris-Cl, pH 7.5, 20 mM MgCl2, 0.1 mg/ml BSA and 50 μM DTT) and added to a 96 well plate (CDK7 final concentration per reaction: 50 ng). It was finally treated with the compound of the present invention to a 1% DMSO aqueous solution, and a substrate cocktail containing ATP (final concentration of 90 μM) and 0.2 μg/μl MBP (myelin basic protein) in a total of 25 μl reaction mass was added to a 96 well plate, thereby initiating the enzymatic reaction. After 2 hours of incubation (30° C.), an equal volume (25 μl per reaction) of ADP Glo was added and incubated at room temperature for 60 minutes (30° C.). Thereafter, kinase detection reagent (50 μl per reaction) was added and incubated at room temperature for 30 minutes (30° C.). The kinase activity was measured by the chemiluminescence method according to the ADP Glo Kinase Assay Kit instruction manual, and the CDK7 inhibitory activity of the compounds of the present invention was calculated.

A further assay concerns MV-4-11 cells. As to the kind of experiment: MV-4-11 cell proliferation inhibition (CCK-8). In kind it is cell-based. Particulars: Homo sapiens, 72 hours; for inhibition at 0.1 µM: MV4-11, MV-4-11, compound concentration 100 nM, read-out: Inhibition rate (%); for IC50: MV4-11, MV-4-11 proliferation. The procedure: MV-4-11 cells are one of the acute myeloid leukemia cells with a Fms-like tyrosine kinase (FLT3) gene mutation, and these cells are used to test inhibition of proliferation and survival of leukemia cells.
MV-4-11 cells cultured in a 96-well cell culture plate were treated with the compound of the present invention and cultured for 72 hours. Thereafter, the antiproliferative effect of the compound was assayed by the CCK-8 method using a tetrazolium salt.

T1 sequence (P50613 whole entry): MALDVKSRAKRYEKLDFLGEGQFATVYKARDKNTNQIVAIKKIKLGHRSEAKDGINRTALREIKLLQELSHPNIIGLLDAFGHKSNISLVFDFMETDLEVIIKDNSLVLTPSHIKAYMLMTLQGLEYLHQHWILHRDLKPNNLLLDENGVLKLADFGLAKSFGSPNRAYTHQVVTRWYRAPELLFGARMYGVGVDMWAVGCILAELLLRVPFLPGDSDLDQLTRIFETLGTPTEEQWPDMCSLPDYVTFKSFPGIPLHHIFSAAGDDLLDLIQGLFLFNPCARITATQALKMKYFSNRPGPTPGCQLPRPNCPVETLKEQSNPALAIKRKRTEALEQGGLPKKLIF
T1 sequence (P51946 whole entry partner): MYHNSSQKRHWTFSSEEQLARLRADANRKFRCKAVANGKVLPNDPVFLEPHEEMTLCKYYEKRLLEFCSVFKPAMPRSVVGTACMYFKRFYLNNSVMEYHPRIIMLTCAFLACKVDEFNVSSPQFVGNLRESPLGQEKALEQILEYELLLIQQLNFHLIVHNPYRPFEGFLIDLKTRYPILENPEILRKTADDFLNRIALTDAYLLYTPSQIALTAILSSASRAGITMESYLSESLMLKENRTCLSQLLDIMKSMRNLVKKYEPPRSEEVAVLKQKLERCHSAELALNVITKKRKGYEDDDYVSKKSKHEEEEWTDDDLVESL
T1 sequence (P51948 whole entry partner): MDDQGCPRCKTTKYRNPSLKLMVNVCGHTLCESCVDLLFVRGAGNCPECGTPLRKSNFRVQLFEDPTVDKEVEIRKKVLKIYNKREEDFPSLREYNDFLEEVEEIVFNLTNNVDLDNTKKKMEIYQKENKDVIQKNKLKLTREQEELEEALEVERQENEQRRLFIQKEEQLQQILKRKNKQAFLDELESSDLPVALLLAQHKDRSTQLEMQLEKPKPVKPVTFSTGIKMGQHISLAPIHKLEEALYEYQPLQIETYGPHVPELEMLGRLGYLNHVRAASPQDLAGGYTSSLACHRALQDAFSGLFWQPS

On to `C=CC(=O)Nc1ccc(-c2cccc(C(C)C(=O)Nc3ncc(C4CC4)s3)c2)cn1` (stereo not drawn) [Compound 2, N-(5-(3-(1-((5-cyclopropylthiazol-2-yl)amino)-1-oxopropan-2-yl)phenyl)pyridin-2-yl)acrylamide], for which, in assay [1], the half-maximal inhibitory concentration (IC50) was 40 nM. Still for that read-out and setting: with `CC(C(=O)Nc1ncc(C2CC2)s1)c1cccc(-c2ccc(NC(=O)/C=C/CN(C)C)nc2)c1` (stereo not drawn) [Compound 6, (E)-N-(5-(3-(1-((5-cyclopropylthiazol-2-yl)amino)-1-oxopropan-2-yl)phenyl)pyridin-2-yl)-4-(dimethylamino)but-2-enamide] the figure was 35 nM. In the case of `C=CC(=O)Nc1cnc(-c2cccc([C@H](C)C(=O)Nc3ncc(C(C)C)s3)c2)cn1` [Compound 36, (S)-N-(5-(3-(1-((5-isopropylthiazol-2-yl)amino)-1-oxopropan-2-yl)phenyl)pyrazin-2-yl)acrylamide], the inhibition at 0.1 µM with MV-4-11 cells worked out at 100%. As to `C=CC(=O)Nc1ccc(-c2cccc([C@H](C)C(=O)Nc3ncc(C(F)(F)F)s3)c2)cn1` [Compound 38, (S)-N-(5-(3-(1-oxo-1-((5-(trifluoromethyl)thiazol-2-yl)amino)propan-2-yl)phenyl)pyridin-2-yl)acrylamide], the inhibition at 0.1 µM with MV-4-11 cells amounted to 98%.

Regarding `C=CC(=O)Nc1ccc(-c2cccc([C@H](C)C(=O)Nc3ncc(C(F)(F)F)s3)c2)nn1` [Compound 39, (S)-N-(6-(3-(1-oxo-1-((5-(trifluoromethyl)thiazol-2-yl)amino)propan-2-yl)phenyl)pyridazin-3-yl)acrylamide], in the assay with MV-4-11 cells, the inhibition at 0.1 µM turned out to be 100% and the IC50 was determined as 30 nM. For `C=CC(=O)Nc1ccc(-c2cccc([C@H](C)C(=O)Nc3ncc(C(C)C)s3)c2)nn1` [Compound 40, (S)-N-(6-(3-(1-((5-isopropylthiazol-2-yl)amino)-1-oxopropan-2-yl)phenyl)pyridazin-3-yl)acrylamide], in that order: 100% and 27.8 nM. As to `C=CC(=O)Nc1ccc(-c2cncc(C(C)C(=O)Nc3ncc(C#N)s3)c2)cn1` (stereo not drawn) [Compound 41, N-(5′-(1-((5-cyanothiazol-2-yl)amino)-1-oxopropan-2-yl)-[3,3′-bipyridin]-6-yl)acrylamide], in the assay on MV-4-11 cells, the inhibition at 0.1 µM stood at 100%.

With `C=CC(=O)Nc1ccc(-c2cc(C(C)C(=O)Nc3ncc(C#N)s3)ccn2)cn1` (stereo not drawn) [Compound 42, N-(4-(1-((5-cyanothiazol-2-yl)amino)-1-oxopropan-2-yl)-[2,3′-bipyridin]-6′-yl)acrylamide], the inhibition at 0.1 µM with MV-4-11 cells came out at 100%.

With `C=CC(=O)Nc1cnc(-c2cncc(C(C)C(=O)Nc3ncc(C4CC4)s3)c2)cn1` (stereo not drawn) [Compound 43, N-(5-(5-(1-((5-cyclopropylthiazol-2-yl)amino)-1-oxopropan-2-yl)pyridin-3-yl)pyrazin-2-yl)acrylamide], in the assay with MV-4-11 cells, the inhibition at 0.1 µM was found to be 100% and the IC50 worked out at 24.6 nM.

For `C=CC(=O)Nc1cnc(-c2cncc(C(C)C(=O)Nc3ncc(C#N)s3)c2)cn1` (stereo not drawn) [Compound 44, N-(5-(5-(1-((5-cyanothiazol-2-yl)amino)-1-oxopropan-2-yl)pyridin-3-yl)pyrazin-2-yl)acrylamide], in the assay with MV-4-11 cells, the inhibition at 0.1 µM was found to be 100% and inhibition was half-maximal at 54.4 nM (IC50). The corresponding values for `C=CC(=O)Nc1cnc(-c2cncc(C(C)C(=O)Nc3ncc(CC)s3)c2)cn1` (stereo not drawn) [Compound 46, N-(5-(5-(1-((5-ethylthiazol-2-yl)amino)-1-oxopropan-2-yl)pyridin-3-yl)pyrazin-2-yl)acrylamide] are 100% and 9.1 nM. With `C=CC(=O)Nc1cnc(-c2cncc(C(C)C(=O)Nc3ncc(C(C)C)s3)c2)cn1` (stereo not drawn) [Compound 47, N-(5-(5-(1-((5-isopropylthiazol-2-yl)amino)-1-oxopropan-2-yl)pyridin-3-yl)pyrazin-2-yl)acrylamide], in the assay on MV-4-11 cells, the inhibition at 0.1 µM came out at 100% and inhibition was half-maximal at 12.2 nM (IC50).

In the case of `C=CC(=O)Nc1cnc(-c2cncc(C(C)C(=O)Nc3ncc(C(C)=O)s3)c2)cn1` (stereo not drawn) [Compound 48, N-(5-(5-(1-((5-acetylthiazol-2-yl)amino)-1-oxopropan-2-yl)pyridin-3-yl)pyrazin-2-yl)acrylamide], the inhibition at 0.1 µM in the assay on MV-4-11 cells came to 100%. As to `C=CC(=O)Nc1ccc(-c2cncc(C(C)C(=O)Nc3ncc(C(F)(F)F)s3)c2)nn1` (stereo not drawn) [Compound 49, N-(6-(5-(1-oxo-1-((5-(trifluoromethyl)thiazol-2-yl)amino)propan-2-yl)pyridin-3-yl)pyridazin-3-yl)acrylamide], in the assay with MV-4-11 cells, the inhibition at 0.1 µM came out at 100% and it took 18.7 nM to reach half-maximal inhibition (IC50). The corresponding values for `C=CC(=O)Nc1ccc(-c2cc(C(C)C(=O)Nc3ncc(C4CC4)s3)ccn2)cn1` (stereo not drawn) [Compound 50, N-(4-(1-((5-cyclopropylthiazol-2-yl)amino)-1-oxopropan-2-yl)-[2,3′-bipyridin]-6′-yl)acrylamide] are 100% and 17.2 nM. `C=CC(=O)Nc1cnc(-c2cncc(C(C)C(=O)Nc3ncc(Cl)s3)c2)cn1` (stereo not drawn) [Compound 61, N-(5-(5-(1-((5-chlorothiazol-2-yl)amino)-1-oxopropan-2-yl)pyridin-3-yl)pyrazin-2-yl)acrylamide] returned an IC50 in the assay on MV-4-11 cells of 9.1 nM. Same read-out and setting: the value for `C=CC(=O)Nc1cnc(-c2cncc(C(C)C(=O)Nc3ncc(OC)s3)c2)cn1` (stereo not drawn) [Compound 66, N-(5-(5-(1-((5-methoxythiazol-2-yl)amino)-1-oxopropan-2-yl)pyridin-3-yl)pyrazin-2-yl)acrylamide] was 22.8 nM.

For `C=CC(=O)Nc1cnc(-c2cncc(C(C)C(=O)Nc3ncc(SC)s3)c2)cn1` (stereo not drawn) [Compound 71, N-(5-(5-(1-((5-(methylthio)thiazol-2-yl)amino)-1-oxopropan-2-yl)pyridin-3-yl)pyrazin-2-yl)acrylamide], the IC50 with MV-4-11 cells came out at 3.2 nM. As to `C=CC(=O)Nc1ccc(-c2csc(C(C)C(=O)Nc3ncc(Cl)s3)c2)cn1` (stereo not drawn) [Compound 76, N-(5-(5-(1-((5-chlorothiazol-2-yl)amino)-1-oxopropan-2-yl)thiophen-3-yl)pyridin-2-yl)acrylamide], the IC50 in assay [1] came to 92 nM. Molecule `C=CC(=O)Nc1ccc(-c2csc(C(C)C(=O)Nc3ncc(CC)s3)c2)cn1` (stereo not drawn) [Compound 77, N-(5-(5-(1-((5-ethylthiazol-2-yl)amino)-1-oxopropan-2-yl)thiophen-3-yl)pyridin-2-yl)acrylamide] returned a half-maximal inhibitory concentration (IC50) with MV-4-11 cells of 16.7 nM. For the molecule `C=CC(=O)Nc1cc(F)c(-c2cncc(C(C)C(=O)Nc3ncc(C(F)(F)F)s3)c2)cn1` (stereo not drawn) [Compound 84, N-(4-fluoro-5′-(1-oxo-1-((5-(trifluoromethyl)thiazol-2-yl)amino)propan-2-yl)-[3,3′-bipyridin]-6-yl)acrylamide], the IC50 in assay [1] was found to be 68 nM. Turning to `C=CC(=O)Nc1ncc(-c2cncc(C(C)C(=O)Nc3ncc(C(F)(F)F)s3)c2)cc1C#N` (stereo not drawn) [Compound 88, N-(5-cyano-5′-(1-oxo-1-((5-(trifluoromethyl)thiazol-2-yl)amino)propan-2-yl)-[3,3′-bipyridin]-6-yl)acrylamide], the half-inhibitory concentration (IC50) in assay [1] turned out to be 16 nM. Still for that read-out and setting: the value for `C[C@H](C(=O)Nc1ncc(C(F)(F)F)s1)c1cccc(-c2cnc(NC(=O)/C=C/CN3CCOCC3)cn2)c1` [Compound 92, (S,E)-4-morpholino-N-(5-(3-(1-oxo-1-((5-(trifluoromethyl)thiazol-2-yl)amino)propan-2-yl)phenyl)pyrazin-2-yl)but-2-enamide] was 42 nM. The same measure, in the same setting: with `C[C@H](C(=O)Nc1ncc(Cl)s1)c1cccc(-c2cnc(NC(=O)/C=C/CN(C)C)cn2)c1` [Compound 93, (S,E)-N-(5-(3-(1-((5-chlorothiazol-2-yl)amino)-1-oxopropan-2-yl)phenyl)pyrazin-2-yl)-4-(dimethylamino)but-2-enamide] the figure was 93 nM. Still for that read-out and setting: with `C[C@H](C(=O)Nc1ncc(Cl)s1)c1cccc(-c2cnc(NC(=O)/C=C/CN3CC4CC3CO4)cn2)c1` (stereo partly drawn) [Compound 94, (E)-4-(2-oxa-5-azabicyclo[2.2.1]heptan-5-yl)-N-(5-(3-((S)-1-((5-chlorothiazol-2-yl)amino)-1-oxopropan-2-yl)phenyl)pyrazin-2-yl)but-2-enamide] the figure was 14.5 nM.

As to `C[C@H](C(=O)Nc1ncc(C(F)(F)F)s1)c1cccc(-c2cnc(NC(=O)/C=C/CN3CCN(C)CC3)cn2)c1` [Compound 95, (S,E)-4-(4-methylpiperazin-1-yl)-N-(5-(3-(1-oxo-1-((5-(trifluoromethyl)thiazol-2-yl)amino)propan-2-yl)phenyl)pyrazin-2-yl)but-2-enamide], the IC50 in assay [1] came to 80.4 nM. Same read-out and setting: the value for `C[C@H](C(=O)Nc1ncc(Cl)s1)c1cccc(-c2cnc(NC(=O)/C=C/CN3CCOCC3)cn2)c1` [Compound 98, (S,E)-N-(5-(3-(1-((5-chlorothiazol-2-yl)amino)-1-oxopropan-2-yl)phenyl)pyrazin-2-yl)-4-morpholinobut-2-enamide] was 87 nM; that for `COc1cc(-c2cccc([C@H](C)C(=O)Nc3ncc(C(F)(F)F)s3)c2)cnc1NC(=O)/C=C/CN(C)C` [Compound 100, (S,E)-4-(dimethylamino)-N-(3-methoxy-5-(3-(1-oxo-1-((5-(trifluoromethyl)thiazol-2-yl)amino)propan-2-yl)phenyl)pyridin-2-yl)but-2-enamide] was 9.8 nM.
